Values of other authors in US7405313B2, “Method for the synthesis of basic chromium carboxylates” (The Board of Trustees of the University of Alabama, priority 2006, dated 2008).

Columns and labels:
[1] = system: healthy and model type 2 diabetic rats
[2] = compared to other chromium-containing nutritional supplements
colorectal cancer = settings: rat
rats on regular diets = settings: for effect on body mass, percentage lean or fat content, tissue size, or blood variables (fasting glucose, insulin, cholesterol, etc.): rats on regular diets
[3] = healthy and model type 2 diabetic rats

Row | Compound | dissolution in water | glycated hemoglobin ([1]; diabetes models) | blood plasma cholesterol and triglycerides levels [1, 3] | insulin sensitivity [1, 3] | absorption [2] | onset of colorectal cancer (colorectal cancer) | effect on body mass, percentage lean or fat content, tissue size, or blood variables (fasting glucose, insulin, cholesterol, etc.) (rats on regular diets) | acute toxic effects (rats on regular diets; rats, amounts up to 1500 μg/kg diet for up to 24 weeks)
1 | CCC(=O)[O-].CCC(=O)[O-].CCC(=O)[O-].CCC(=O)[O-].CCC(=O)[O-].CCC(=O)[O-].O.O.O.[Cr+3].[Cr+3].[Cr+3].[O-2] [Complex 1, [Cr3O(O2CCH2CH3)6(H2O)3]^+] | dissolves in water very rapidly | reduce glycated hemoglobin | improve blood plasma cholesterol and triglycerides levels | increase insulin sensitivity | absorbed very rapidly and very efficiently | reduce the onset of colorectal cancer | – | –
2 | [Cl][Cr]([Cl])[Cl] [chromium chloride] | – | – | – | – | – | – | no effect | –
3 | chromium(III) tris(picolinate) [Cr(pic)3] | – | – | – | – | – | – | no effect | no acute toxic effects
